We go through four molecules from patent publication US5486541A (Teva Pharmaceutical Industries, Ltd., priority 1991, dated 1996).

Structures are written as SMILES. Entries after “also recorded” stand apart in the source; their conditions may differ. Where two headings read alike, the source gives them in different places.

One data set relates to Parkinson's patients. As to conditions: with L-Dopa (and decarboxylase inhibitor); cited from earlier work.
For data set [1] the following is noted: at doses causing nearly complete inhibition of MAO-B; Elsworth et al.; cited from earlier work.
In data set [2] the test system is blood pressure response to tyramine. Nature of the data set: Tyramine Potentiation in Vivo (blood pressure response to tyramine). On the set-up: species or system rat. As to conditions: for Potentiation of blood pressure response to tyramine: compound 5 mg/kg orally, tyramine 20 mg/kg orally, ratio of areas under the curve of blood pressure. On the procedure:
On the previous day a tail artery cannulation was performed to enable direct blood pressure measurements. On the experimental day the cannulae were connected to pressure transducers. The animals were unrestrained and were kept in a glass sided open top tank during the pressure measurements. […] The desired compound was administered 30 minutes after the last dose of tyramine. Tyramine was administered again, in increasing doses, as described above, one hour after the desired compound was administered. […] The tyramine potentiating effect was calculated as a ratio between the areas under the curve of blood pressure measured with tyramine alone (20 mg/kg) and that measured after administration of the desired compounds and tyramine.

Data set [3] deals with MAO-B. Description: Inhibition of MAO Activity Ex-vivo: Acute Treatment, liver, MAO-B. The data set is classed as in vivo, rat (male Sprague-Dawley derived). Particulars: for ED-50 LIVER MAO-B: rat, ip or po, 2 hours after dosing; for LIVER MAO-A/MAO-B (measure of selectivity): ratio of ED-50 values, rat liver, ex vivo. Here is the method: (§1) These experiments were performed essentially according to the protocol of K. F. Tipton and M. B. H. Youdim in CIBA Symposium No. 39, Editors: G. E. W. Wolstenholme and J. Knight, Elsevier, Amsterdam, 1976, pp. 393-403. The MAO enzyme source was a homogenate of rat brain in 0.3M sucrose which was centrifuged at 600 g for 15 minutes. The supernatant was diluted appropriately in 0.05M phosphate buffer and preincubated with serial dilutions of compounds of interest which are listed below for 20 minutes at 37° C. ^14 C-labeled substrates (2-phenylethylamine, hereinafter PEA; 5-hydroxytryptamine, hereinafter 5-HT) were then added and the incubation continued for a further 20 minutes (PEA) or 30-45 minutes (5-HT). Substrate concentrations used were 20 μM (PEA) or 1 mM (5-HT). In the case of PEA the enzyme concentration was chosen so that not more than 10% of the substrate was metabolized during the course of the reaction. The reaction was then stopped by the addition of tranylcypromine (to final concentration of 1 mM) and the incubate filtered over a small column of Amberlite CG-50; buffered to pH 6.3. The column was washed with 1.5 ml water, the eluates pooled and the radioactive content determined by liquid scintillation spectrometry. Since the amine substrates are totally retained on the column, radioactivity in the eluate indicates the production of neutral and acidic metabolites formed as a result of MAO activity. Activity of MAO in the sample was expressed as a percentage of control activity in the absence of inhibitors after subtraction of appropriate blank values. The activity determined using PEA as a substrate is referred to as MAO B activity, and that determined using 5-HT as a substrate is referred to as MAO A activity.
(§2) Rats (male Sprague-Dawley derived) weighing 250±20 g were treated with the desired compound by intraperitoneal injection (ip) or oral gavage (po) and decapitated 2 hours later. Groups of three rats were used for each dose level of the compound and MAO activity was determined in the brain and liver using the general technique described above. The amount of protein in each incubation was determined using the Folin-Lowry method, and enzyme activity was calculated as nmol substrate metabolized per hour incubation for each mg protein. Activity of MAO in tissues from animals treated with inhibitors was expressed as a percentage of the enzyme activity in a group of control animals which were administered the vehicle alone (water in the case of oral gavage, or 0.9% saline in the case of intraperitoneal injection) and killed as above.

Data set [4] has as its target T1, MAO-B (Rattus norvegicus, UniProt P19643).
T1 sequence (P19643 1-520): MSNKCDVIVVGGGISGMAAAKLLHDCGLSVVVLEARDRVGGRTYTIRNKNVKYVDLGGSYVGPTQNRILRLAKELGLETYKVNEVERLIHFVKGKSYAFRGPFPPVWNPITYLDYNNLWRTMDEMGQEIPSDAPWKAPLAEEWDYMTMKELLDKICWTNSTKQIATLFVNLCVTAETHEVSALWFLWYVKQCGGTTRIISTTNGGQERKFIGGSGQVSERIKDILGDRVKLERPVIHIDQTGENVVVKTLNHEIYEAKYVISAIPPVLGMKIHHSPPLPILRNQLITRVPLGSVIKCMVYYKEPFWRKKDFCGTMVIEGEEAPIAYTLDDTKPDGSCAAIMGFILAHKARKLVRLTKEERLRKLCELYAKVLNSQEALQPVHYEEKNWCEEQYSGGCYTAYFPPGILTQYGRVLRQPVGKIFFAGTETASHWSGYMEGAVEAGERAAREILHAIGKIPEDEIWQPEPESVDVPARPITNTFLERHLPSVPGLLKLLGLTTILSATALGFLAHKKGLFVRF
Nature of the data set: biochemical. The data set is classed as biochemical. Particulars: for IC50: 20 min preincubation at 37° C., PEA 20 μM, read-out: IC50 for Inhibition of MAO-B in Brain Homogenates.

Data set [5] relates to MAO-B. Description: Inhibition of MAO Activity Ex-vivo: Acute Treatment, brain, MAO-B. The data set is classed as in vivo, rat (male Sprague-Dawley derived). As to conditions: for ED-50 BRAIN MAO-B: rat, ip or po, 2 hours after dosing; for BRAIN MAO-A/MAO-B (measure of selectivity): ratio of ED-50 values, rat brain, ex vivo.
Data set [6] concerns MAO-A. Nature of the data set: Inhibition of MAO Activity Ex-vivo: Acute Treatment, liver, MAO-A. The data set is classed as in vivo, rat (male Sprague-Dawley derived). As to conditions: rat, ip or po, 2 hours after dosing. On the procedure: as §1, §2
Data set [7] has as its system MAO-A. Description: Inhibition of MAO Activity Ex-vivo: Acute Treatment, brain, MAO-A. Particulars: rat, ip or po, 2 hours after dosing. The data set is classed as in vivo, rat (male Sprague-Dawley derived).
The target of data set [8] is T2, MAO-A (Rattus norvegicus, UniProt P21396).
T2 sequence (P21396 1-526): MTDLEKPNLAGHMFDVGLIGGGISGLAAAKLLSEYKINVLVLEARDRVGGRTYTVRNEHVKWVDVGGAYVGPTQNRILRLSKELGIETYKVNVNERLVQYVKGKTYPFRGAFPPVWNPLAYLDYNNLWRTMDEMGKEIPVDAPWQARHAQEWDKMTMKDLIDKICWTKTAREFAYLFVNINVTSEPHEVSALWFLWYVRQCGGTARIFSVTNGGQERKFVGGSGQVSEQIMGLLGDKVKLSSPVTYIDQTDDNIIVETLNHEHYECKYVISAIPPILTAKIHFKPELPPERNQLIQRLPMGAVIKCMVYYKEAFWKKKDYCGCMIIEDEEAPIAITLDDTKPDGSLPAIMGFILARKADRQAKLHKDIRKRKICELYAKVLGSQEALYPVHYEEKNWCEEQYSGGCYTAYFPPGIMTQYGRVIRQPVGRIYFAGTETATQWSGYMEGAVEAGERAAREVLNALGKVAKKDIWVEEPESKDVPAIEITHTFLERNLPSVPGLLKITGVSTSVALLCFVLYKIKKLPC
Nature of the data set: biochemical. Particulars: rat brain homogenate; 20 min preincubation at 37° C.; 5-HT 1 mM; read-out: IC50 for Inhibition of MAO-A in Brain Homogenates.

[9] abbreviates: ratio IC50 MAO-A / IC50 MAO-B, rat brain homogenate.

Consider `C#CCN(C)[C@H](C)Cc1ccccc1` [(-)-deprenyl], for which the “clinical effect on addition to L-Dopa treatment (in words)” value in the data set with Parkinson's patients is “improvements in akinesia and overall functional capacity as well as the elimination of "on-off" type fluctuations; also recorded: enhances and prolongs the effect of L-Dopa”. In addition, the “"cheese effect" of (-)-deprenyl (in words)” value in data set [1] is reported as “not causing the "cheese effect"”.
In general, IC50 refers to the concentration needed to halve the response being measured. Consider `C#CCNC1CCc2ccc(F)cc21.Cl` (single isomer, unassigned; (+)) [(+)-6-F, (+)-6-Fluoro-N-propargyl-1-aminoindan hydrochloride], for which, in [2], the “Potentiation of blood pressure response to tyramine” value (from here on “Potentiation”) was 1.2 fold. Moreover, the “tyramine potentiating effect (in words)” value in [2] (rat, 5 mg/kg oral, listed as (+)-6-F-N-propargyl-1-aminoindan, hydrochloride, 5 mg/kg) was “lowest potentiating effect as compared to the (+)-5-F and (+)-4-F derivatives; also recorded: does not cause significant potentiation of tyramine; also recorded: a dose 35 times higher results practically in no tyramine potentiation”. The “ED-50 LIVER MAO-B” value in the data set on MAO-B [3] (hydrochloride, 120 min) came to 0.13 mg/kg. For the same molecule, in the data set on MAO-B [3], the “LIVER MAO-A/MAO-B (measure of selectivity)” value is recorded as 40. Moreover, the “Selectivity MAO-A/MAO-B (in vitro IC50)” value at MAO-B [4] was found to be 1244. In addition, the “MAO-B selectivity in vitro (in words)” value at MAO-B [4] (in vitro) was “much more selective than the parent non-fluorinated compound and more selective than the other fluorinated derivatives”. The IC50 at MAO-B [4] (rat brain homogenate) is 0.22 nM; on MAO-A [8], 2800 nM. Moreover, the “ED-50 BRAIN MAO-B” value turned out to be 0.14 mg/kg in the data set with MAO-B [5] (hydrochloride, 120 min) and 0.14 mg/kg with MAO-B [5] (listed as (+)-6-F-N-propargyl-1-aminoindan, hydrochloride, 120 min). Further, the “BRAIN MAO-A/MAO-B (measure of selectivity)” value in the data set on MAO-B [5] (hydrochloride) worked out at 152. For the same molecule, the “ED-50 LIVER MAO-A” value with MAO-A [6] is reported as 5.2 mg/kg. Besides, the “ED-50 BRAIN MAO-A” value in the data set with MAO-A [7] (hydrochloride, 120 min) turned out to be 21.3 mg/kg.
In the case of `C#CCNC1CCc2cc(F)ccc21.Cl` (single isomer, unassigned; (+)) [(+)-5-F, (+)-5-Fluoro-N-propargyl-1-aminoindan hydrochloride], the “Potentiation” value in [2] came out at 2.25 fold. In the data set on MAO-B [3], the “ED-50 LIVER MAO-B” value is recorded as 0.07 mg/kg and the “LIVER MAO-A/MAO-B (measure of selectivity)” value is greater than 1.4. The half-inhibitory concentration (IC50) at MAO-B [4] (rat brain homogenate) amounted to 5.7 nM. Also, at MAO-B [4] (setting [9]), the “Selectivity MAO-A/MAO-B (in vitro IC50)” value is listed as 24. In the data set with MAO-B [5], the “ED-50 BRAIN MAO-B” value amounted to 0.07 mg/kg and the “BRAIN MAO-A/MAO-B (measure of selectivity)” value is recorded as greater than 1.4. The “ED-50 LIVER MAO-A” value with MAO-A [6] is on record as greater than 0.1 mg/kg. In addition, the “ED-50 BRAIN MAO-A” value in the data set on MAO-A [7] was greater than 0.1 mg/kg. Further, the IC50 at MAO-A [8] stood at 140 nM.
With `C#CCNC1CCc2c(F)cccc21.Cl` (single isomer, unassigned; (+)) [(+)-4-F, (+)-4-Fluoro-N-propargyl-1-aminoindan hydrochloride], in data set [2], the “Potentiation” value is 1.55 fold. For the same molecule, in the data set on MAO-B [3], the “ED-50 LIVER MAO-B” value amounted to 0.17 mg/kg and the “LIVER MAO-A/MAO-B (measure of selectivity)” value is reported as greater than 5.9. Moreover, the IC50 at MAO-B [4] (rat brain homogenate) was 5.2 nM. Besides, on MAO-B [4] (setting [9]), the “Selectivity MAO-A/MAO-B (in vitro IC50)” value is 65. In addition, in the data set with MAO-B [5], the “ED-50 BRAIN MAO-B” value turned out to be 0.33 mg/kg and the “BRAIN MAO-A/MAO-B (measure of selectivity)” value is given as greater than 3. The “ED-50 LIVER MAO-A” value in the data set with MAO-A [6] is listed as greater than 1.0 mg/kg. The “ED-50 BRAIN MAO-A” value in the data set with MAO-A [7] is listed as greater than 1.0 mg/kg. Moreover, the IC50 at MAO-A [8] worked out at 340 nM.
